ChEMBL document CHEMBL5030512 (J Med Chem, 2021)
The source made the active and inactive calls. The rule behind the calls is not given here.

Experiments:
[1] = Dissociation constant, pKa of compound; type: physicochemical
[2] = Stability in human plasma assessed as half life measured upto 48 hrs by RP-HPLC analysis; type: ADME, cell-free
HCT-116 [3] = assay: Cytotoxicity against human HCT-116 cells assessed as reduction in cell viability measured after 48 hrs by SRB assay; type: functional, cell-based; conditions: HCT-116, 48 h
HT-29 [4] = assay: Cytotoxicity against human HT-29 cells assessed as reduction in cell viability measured after 48 hrs by SRB assay; type: functional, cell-based; conditions: HT-29, 48 h
HCT-116 [5] = assay: Cytotoxicity against human HCT-116 cells assessed as reduction in cell viability measured after 48 hrs in presence of 5 mM GSH by SRB assay; type: functional, cell-based; conditions: HCT-116, 48 h
HT-29 [6] = assay: Cytotoxicity against human HT-29 cells assessed as reduction in cell viability measured after 48 hrs in presence of 5 mM GSH by SRB assay; type: functional, cell-based; conditions: HT-29, 48 h
NHDF = assay: Cytotoxicity against NHDF assessed as reduction in cell viability measured after 48 hrs by SRB assay; type: cell-based; conditions: Homo sapiens
Colon cancer cell line [7] = assay: Antitumour activity against human colorectal cancer cells xenografted in BALB/c mouse assessed as tumour suppression at 50 mg/kg, ip administered once every 3 days for 3 weeks; type: functional, organism-based
[8] = Toxicity in BALB/c mouse xenografted with human colorectal cancer cells assessed as reduction in body weight at 50 mg/kg, ip administered once every 3 days for 3 weeks; type: organism-based; design: scale not given: the % may be the effect or the level left; conditions: in vivo, 504 h
[9] = Biodistribution in BALB/c mouse stomach at 50 mg/kg, ip measured after 1 hr; type: ADME, organism-based; conditions: in vivo
[10] = Biodistribution in BALB/c mouse stomach at 9.5 mg/kg, ip measured after 1 hr; type: ADME, organism-based; conditions: in vivo
[11] = Biodistribution in BALB/c mouse spleen at 9.5 mg/kg, ip measured after 1 hr; type: ADME, organism-based; conditions: in vivo
[12] = Biodistribution in BALB/c mouse kidney at 9.5 mg/kg, ip measured after 1 hr; type: ADME, organism-based; conditions: in vivo
[13] = Stability of compound at pH 4 to 5; type: physicochemical; conditions: buffer
[14] = Stability of compound at pH >= 7; type: physicochemical
COS-7 = assay: Inhibition of GLUT1 in African green monkey COS-7 cells assessed as reduction in 2-NBDG uptake at 50 to 100 uM incubated for 90 mins by fluorescence microplate reader analysis; type: cell-based; conditions: Chlorocebus aethiops, dose 50-100 µM
HCT-116 [15] = assay: Cytotoxicity against human HCT-116 cells assessed as reduction in cell viability treated with 5 mM GSH measured after 48 hrs in presence of 5-FU by SRB assay; type: functional, cell-based; conditions: HCT-116, 48 h
HT-29 [16] = assay: Cytotoxicity against human HT-29 cells assessed as reduction in cell viability treated with 5 mM GSH measured after 48 hrs in presence of 5-FU by SRB assay; type: functional, cell-based; conditions: HT-29, 48 h
HCT-116 [17] = assay: Cytotoxicity against human HCT-116 cells assessed as reduction in cell viability measured after 48 hrs in presence of 5-FU by SRB assay; type: functional, cell-based; conditions: HCT-116, 48 h
HT-29 [18] = assay: Cytotoxicity against human HT-29 cells assessed as reduction in cell viability measured after 48 hrs in presence of 5-FU by SRB assay; type: functional, cell-based; conditions: HT-29, 48 h
Colon cancer cell line [19] = assay: Synergistic antitumour activity against human colorectal cancer cells xenografted in BALB/c mouse assessed as reduction in tumour size at 30 mg/kg, ip administered once every 3 days for 3 weeks in presence of 10 mg/kg 5-FU; type: functional, organism-based
[20] = Drug metabolism in 5 mM GSH assessed as 5-FU release after 48 hrs; type: ADME
[21] = Half life of the compound in 5 mM GSH; type: physicochemical
[22] = Drug degradation in 5 uM GSH after 48 hrs; type: ADME; conditions: read-out: Drug degradation
[23] = Drug metabolism in BALB/c mouse assessed as release of 5-FU in blood at 50 mg/kg, iv measured after 2 hrs by UPLC-MS/MS analysis; type: ADME, organism-based; conditions: in vivo
[24] = Drug uptake in BALB/c mouse blood at 50 mg/kg, iv measured after 30 mins by UPLC-MS/MS method; type: ADME, organism-based; conditions: in vivo, 0.5 h
[25] = Drug uptake in BALB/c mouse blood at 50 mg/kg, iv measured after 45 mins by UPLC-MS/MS method; type: ADME, organism-based; conditions: in vivo, 0.75 h
[26] = Drug uptake in BALB/c mouse blood at 50 mg/kg, iv measured after 4 hrs by UPLC-MS/MS method; type: ADME, organism-based; conditions: in vivo
[27] = Tmax in BALB/c mouse at 50 mg/kg, ip by LC-MS/MS analysis; type: ADME, organism-based; conditions: in vivo
[28] = Biodistribution in BALB/c mouse colon at 50 mg/kg, ip measured after 1 hr; type: ADME, organism-based; conditions: in vivo
[29] = Biodistribution in BALB/c mouse heart at 50 mg/kg, ip measured after 1 hr; type: ADME, organism-based; conditions: in vivo
[30] = Biodistribution in BALB/c mouse liver at 50 mg/kg, ip measured after 1 hr; type: ADME, organism-based; conditions: in vivo
[31] = Biodistribution in BALB/c mouse colon assessed as 5-FU release at 50 mg/kg, ip measured after 1 hr; type: ADME, organism-based; conditions: in vivo
[32] = Biodistribution in BALB/c mouse kidney assessed as 5-FU release at 50 mg/kg, ip measured after 1 hr; type: ADME, organism-based; conditions: in vivo
[33] = Biodistribution in BALB/c mouse stomach assessed as 5-FU release at 50 mg/kg, ip measured after 1 hr; type: ADME, organism-based; conditions: in vivo

Question: For `O=C(CCCCCN1C(=O)CC(SCCOCCOCCOc2cc(O)c(C(=O)CCc3ccc(O)cc3)c(O)c2)C1=O)OCn1cc(F)c(=O)[nH]c1=O` (configuration not stated), which pKa [1] is on record?
Answer: 8.5

Question: What about the half-life [2] of the same compound?
Answer: 0.8 h

Question: And the IC50 (HCT-116 [3])?
Answer: 75 µM

Question: And the IC50 (HT-29 [4])?
Answer: 43.7 µM

Question: And the IC50 (HCT-116 [5])?
Answer: 82.8 µM

Question: And the IC50 (HT-29 [6])?
Answer: 86.9 µM

Question: Which results are given for `O=C(CCCCCN1C(=O)CC(SCCOCCOCCOc2cc(O)c(C(=O)CCc3ccc(O)cc3)c(O[C@@H]3O[C@H](CO)[C@@H](O)[C@H](O)[C@H]3O)c2)C1=O)OCn1cc(F)c(=O)[nH]c1=O` (some centres not stated)?
Answer: IC50 (HCT-116 [3]): 97.4 µM; IC50 (HT-29 [4]): > 100 µM; IC50 (HCT-116 [5]): > 100 µM; IC50 (HT-29 [6]): 93.6 µM

Question: Which results are given for `O=c1[nH]cc(F)c(=O)[nH]1` [FLUOROURACIL]?
Answer: IC50 (NHDF): 70.4 µM; Activity (Colon cancer cell line [7]): Active; Activity [8]: 10%; Drug uptake [9]: Active; Drug uptake [10]: Active; Drug uptake [11]: Active; Drug uptake [12]: Active

Question: For `O=C(CCCc1cn(CCOCCOCCOc2cc(O)c(C(=O)CCc3ccc(O)cc3)c(O)c2)nn1)OCn1cc(F)c(=O)[nH]c1=O`, which pKa [1] is on record?
Answer: 8.5

Question: And the half-life [2]?
Answer: 3.6 h

Question: What about the Stability [13] of the same compound?
Answer: Stable

Question: What about the Stability [14] of the same compound?
Answer: Unstable

Question: And the IC50 (HCT-116 [3])?
Answer: > 100 µM

Question: What about the IC50 (HT-29 [4]) of the same compound?
Answer: 85 µM

Question: Which results are given for `O=C(CCc1ccc(O)cc1)c1c(O)cc(OCCOCCOCCS)cc1O`?
Answer: inhibition (COS-7): inactive; IC50 (HCT-116 [3]): 15.5 µM; IC50 (HT-29 [4]): 29.1 µM; IC50 (HCT-116 [5]): 15.9 µM; IC50 (HT-29 [6]): 24.2 µM; IC50 (HCT-116 [15]): 8.73 µM; IC50 (HT-29 [16]): 3.03 µM; IC50 (HCT-116 [17]): 10.4 µM; IC50 (HT-29 [18]): 10.3 µM; Activity (Colon cancer cell line [19]): Active

Question: With `O=C(CCc1ccc(O)cc1)c1c(O)cc(OCCOCCOCCS)cc1O[C@@H]1O[C@H](CO)[C@@H](O)[C@H](O)[C@H]1O` as the compound, how does the inhibition (COS-7) read?
Answer: inactive

Question: What about the IC50 (HCT-116 [3]) of the same compound?
Answer: > 100 µM

Question: And the IC50 (HT-29 [4])?
Answer: > 100 µM

Question: What about the IC50 (HCT-116 [5]) of the same compound?
Answer: > 100 µM

Question: And the IC50 (HT-29 [6])?
Answer: > 100 µM

Question: What about the IC50 (HCT-116 [15]) of the same compound?
Answer: 13.6 µM

Question: What about the IC50 (HT-29 [16]) of the same compound?
Answer: 8.58 µM

Question: And the IC50 (HCT-116 [17])?
Answer: 21.9 µM

Question: What about the IC50 (HT-29 [18]) of the same compound?
Answer: 21 µM

Question: What does the source list for `O=C(CCCc1cn(CCOCCOCCOc2cc(O)c(C(=O)CCc3ccc(O)cc3)c(O[C@@H]3O[C@H](CO)[C@@H](O)[C@H](O)[C@H]3O)c2)nn1)OCn1cc(F)c(=O)[nH]c1=O`?
Answer: IC50 (HCT-116 [3]): > 100 µM; IC50 (HT-29 [4]): > 100 µM

Question: Which inhibition (COS-7) does the source give for `O=C(CCc1ccc(O)cc1)c1c(O)cc(O)cc1O[C@@H]1O[C@H](CO)[C@@H](O)[C@H](O)[C@H]1O` here?
Answer: inactive

Question: For `O=C(CCCSSCCOCCOCCOc1cc(O)c(C(=O)CCc2ccc(O)cc2)c(O)c1)OCn1cc(F)c(=O)[nH]c1=O`, which half-life [2] is on record?
Answer: 13 h

Question: And the Drug metabolism [20]?
Answer: Dose-Dependent Effect

Question: And the t1/2 [21]?
Answer: 4 h

Question: What about the degraded at 48 h [22] of the same compound?
Answer: 30%

Question: What about the IC50 (HCT-116 [3]) of the same compound?
Answer: 21.2 µM

Question: And the IC50 (HT-29 [4])?
Answer: 19.6 µM

Question: And the IC50 (HCT-116 [5])?
Answer: 10.5 µM

Question: And the IC50 (HT-29 [6])?
Answer: 3.8 µM

Question: What about the IC50 (NHDF) of the same compound?
Answer: 90 µM

Question: And the Activity (Colon cancer cell line [7])?
Answer: Active

Question: What about the Activity [8] of the same compound?
Answer: Non-Toxic

Question: What about the Drug metabolism [23] of the same compound?
Answer: Metabolite_Detected

Question: What about the Drug uptake [24] of the same compound?
Answer: Not Active

Question: And the Drug uptake [25]?
Answer: Active

Question: And the Drug uptake [26]?
Answer: Active

Question: And the Tmax [27]?
Answer: 0.75 h

Question: What about the Drug uptake [9] of the same compound?
Answer: Active

Question: And the Drug uptake [28]?
Answer: Active

Question: What about the Drug uptake [29] of the same compound?
Answer: Active

Question: And the Drug uptake [30]?
Answer: Active

Question: And the Drug uptake [31]?
Answer: Active

Question: And the Drug uptake [32]?
Answer: Active

Question: And the Drug uptake [33]?
Answer: Active

Question: For `O=C(CCCSSCCOCCOCCOc1cc(O)c(C(=O)CCc2ccc(O)cc2)c(O[C@@H]2O[C@H](CO)[C@@H](O)[C@H](O)[C@H]2O)c1)OCn1cc(F)c(=O)[nH]c1=O`, which IC50 (HCT-116 [3]) is on record?
Answer: 54.9 µM

Question: What about the IC50 (HT-29 [4]) of the same compound?
Answer: 59.8 µM

Question: What about the IC50 (HCT-116 [5]) of the same compound?
Answer: 23.8 µM

Question: And the IC50 (HT-29 [6])?
Answer: 8 µM
